Laboratory results from patent publication US20260007133A1, “HERBICIDAL COMPOSITION COMPRISING AZINE COMPOUNDS” (BASF SE, priority 2022, published 2026).
Like-named read-outs stand apart in the source and are kept apart here.

How the values were obtained:
Assay type in all cases: in vivo
Amaranthus retroflexus = experiment: Greenhouse post-emergence (POST) herbicidal test on AMARE; conditions: Amaranthus retroflexus, post-emergence
Outline: (§1)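 Weeds grown in loamy sand (~3.0% humus) to 3–15 cm were sprayed post-emergence with compounds suspended or emulsified in water, formulated as 5% emulsion concentrates. Plants were kept at 10-25 °C or 20-35 °C by species. Damage was scored 0–100 (100 = complete destruction) at 20 DAT.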

Ambrosia artemisiifolia = experiment: Greenhouse pre-emergence (PRE) herbicidal test on AMBEL; conditions: Ambrosia artemisiifolia, pre-emergence; for inhibition at 4 g/ha: use rate 4 gai/ha; for inhibition at 8 g/ha: use rate 8 gai/ha
Alopecurus myosuroides = experiment: Greenhouse pre-emergence (PRE) herbicidal test on ALOMY
Outline: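 Each species is sown separately into loamy sand containing roughly 3.0% humus and treated before emergence. Pots are watered and covered until roots establish, then held at 10-25° C or 20-35° C. Injury is rated on a 0 to 100 scale 20 days post-treatment.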

Echinochloa crus-galli = experiment: Greenhouse pre-emergence (PRE) herbicidal test on ECHCG; conditions: Echinochloa crus-galli, pre-emergence, PRE
Geranium pusillum = experiment: Greenhouse post-emergence (POST) herbicidal test on GERPU; conditions: Geranium pusillum, post-emergence; for inhibition at 2 g/ha: use rate 2 gai/ha, read-out: % activity
Outline: as §1

Compound: COc1c(Br)cc(F)c(F)c1Nc1nc(N)nc(C(C)(C)F)n1 [Compound I-2]
- pest or weed control at 2 g/ha (Amaranthus retroflexus; 432 h, POST, AMARE, I-2 solo 2 gai/ha, 18 DAT): 55%
- pest or weed control at 8 g/ha (Amaranthus retroflexus; 432 h, POST, AMARE, I-2 solo 8 gai/ha, 18 DAT): 70%
- inhibition at 2 g/ha (Amaranthus retroflexus; 480 h, AMARE POST, 20 DAT, use rate 2 gai/ha, read-out: % activity): 65%
- inhibition at 8 g/ha (Amaranthus retroflexus; 480 h, AMARE POST, 20 DAT, use rate 8 gai/ha, read-out: % activity): 65%
- pest or weed control at 8 g/ha (Amaranthus retroflexus; 480 h, POST, 8 gai/ha, 20 DAT): 65%
- inhibition at 2 g/ha (Amaranthus retroflexus; 480 h, POST, AMARE, 2 gai/ha, 20 DAT, read-out: % activity solo application): 40%
- inhibition at 8 g/ha (Amaranthus retroflexus; 480 h, POST, AMARE, 8 gai/ha, 20 DAT, read-out: % activity solo application): 75%
- inhibition at 2 g/ha (Amaranthus retroflexus; 480 h, POST, AMARE, use rate 2 gai/ha, 20 DAT, read-out: solo application % activity): 40%
- inhibition at 2 g/ha (Amaranthus retroflexus; 480 h, POST, use rate 2 gai/ha, 20 DAT, read-out: % activity): 75%
- inhibition at 2 g/ha (Ambrosia artemisiifolia; 240 h, PRE, use rate 2 gai/ha, 10 DAT, read-out: % activity): 20%
- inhibition at 4 g/ha (Ambrosia artemisiifolia; 240 h, PRE, 10 DAT): 20%
- inhibition at 8 g/ha (Ambrosia artemisiifolia; 240 h, PRE, 10 DAT, read-out: % activity): 35%
- inhibition at 16 g/ha (Ambrosia artemisiifolia; 240 h, PRE, use rate 16 gai/ha, 10 DAT): 50%
- pest or weed control at 8 g/ha (Ambrosia artemisiifolia; 432 h, PRE, AMBEL, I-2 solo 8 gai/ha, 18 DAT): 70%
- inhibition at 2 g/ha (Ambrosia artemisiifolia; 480 h, AMBEL PRE, 20 DAT, use rate 2 gai/ha, read-out: % activity): 35%
- inhibition at 8 g/ha (Ambrosia artemisiifolia; 480 h, AMBEL PRE, 20 DAT, read-out: % activity): 90%
- pest or weed control at 8 g/ha (Ambrosia artemisiifolia; 480 h, PRE, 8 gai/ha, 20 DAT): 90%
- inhibition at 2 g/ha (Ambrosia artemisiifolia; 480 h, PRE, AMBEL, 2 gai/ha, 20 DAT, read-out: % activity solo application): 0%
- inhibition at 2 g/ha (Ambrosia artemisiifolia; 480 h, PRE, AMBEL, use rate 2 gai/ha, 20 DAT, read-out: solo application % activity): 0%
- inhibition at 8 g/ha (Ambrosia artemisiifolia; 480 h, PRE, 20 DAT, read-out: % activity): 80%
- inhibition at 2 g/ha (Ambrosia artemisiifolia; AMBEL PRE, use rate 2 gai/ha, read-out: % activity): 30%
- inhibition at 4 g/ha (Ambrosia artemisiifolia; PRE, AMBEL): 20%
- % activity (Alopecurus myosuroides; ALOMY PRE, use rate 8 gai/ha): 85%
- pest or weed control at 2 g/ha (Alopecurus myosuroides; Alopecurus myosuroides, pre-emergence, 432 h, PRE, ALOMY, I-2 solo 2 gai/ha, 18 DAT, read-out: % activity): 5%
- pest or weed control at 8 g/ha (Alopecurus myosuroides; Alopecurus myosuroides, pre-emergence, 432 h, PRE, ALOMY, I-2 solo 8 gai/ha, 18 DAT): 75%
- pest or weed control at 8 g/ha (Alopecurus myosuroides; Alopecurus myosuroides, pre-emergence, 480 h, PRE, 8 gai/ha, 20 DAT): 5%
- inhibition at 2 g/ha (Alopecurus myosuroides; Alopecurus myosuroides, pre-emergence, 480 h, PRE, ALOMY, 2 gai/ha, 20 DAT, read-out: % activity solo application): 20%
- inhibition at 8 g/ha (Alopecurus myosuroides; Alopecurus myosuroides, pre-emergence, 480 h, PRE, ALOMY, 8 gai/ha, 20 DAT, read-out: % activity solo application): 75%
- inhibition at 8 g/ha (Alopecurus myosuroides; Alopecurus myosuroides, pre-emergence, 480 h, PRE, ALOMY, use rate 8 gai/ha, 20 DAT, read-out: solo application % activity): 75%
- inhibition at 16 g/ha (Alopecurus myosuroides; Alopecurus myosuroides, pre-emergence, 480 h, PRE, ALOMY, use rate 16 gai/ha, 20 DAT): 95%
- inhibition at 2 g/ha (Alopecurus myosuroides; Alopecurus myosuroides, pre-emergence, 480 h, PRE, use rate 2 gai/ha, 20 DAT, read-out: % activity): 40%
- inhibition at 8 g/ha (Alopecurus myosuroides; Alopecurus myosuroides, pre-emergence, ALOMY PRE, use rate 8 gai/ha, read-out: % activity): 70%
- inhibition at 2 g/ha (Alopecurus myosuroides; Alopecurus myosuroides, pre-emergence, PRE, ALOMY, use rate 2 gai/ha, read-out: % activity): 20%
- inhibition at 4 g/ha (Echinochloa crus-galli; 240 h, use rate 4 gai/ha, 10 DAT): 20%
- inhibition at 8 g/ha (Echinochloa crus-galli; 240 h, use rate 8 gai/ha, 10 DAT, read-out: % activity): 20%
- inhibition at 16 g/ha (Echinochloa crus-galli; 240 h, use rate 16 gai/ha, 10 DAT): 25%
- pest or weed control at 2 g/ha (Echinochloa crus-galli; 432 h, ECHCG, I-2 solo 2 gai/ha, 18 DAT): 10%
- pest or weed control at 8 g/ha (Echinochloa crus-galli; 432 h, ECHCG, I-2 solo 8 gai/ha, 18 DAT): 25%
- inhibition at 2 g/ha (Echinochloa crus-galli; 480 h, ECHCG, 2 gai/ha, 20 DAT, read-out: % activity solo application): 0%
- inhibition at 8 g/ha (Echinochloa crus-galli; 480 h, ECHCG, 8 gai/ha, 20 DAT, read-out: % activity solo application): 90%
- inhibition at 2 g/ha (Echinochloa crus-galli; 480 h, ECHCG, use rate 2 gai/ha, 20 DAT, read-out: solo application % activity): 0%
- inhibition at 8 g/ha (Echinochloa crus-galli; 480 h, ECHCG, use rate 8 gai/ha, 20 DAT, read-out: solo application % activity): 90%
- pest or weed control at 2 g/ha (Echinochloa crus-galli; 480 h, 2 gai/ha, 20 DAT): 55%
- pest or weed control at 2 g/ha (Geranium pusillum; 432 h, POST, GERPU, I-2 solo 2 gai/ha, 18 DAT): 40%
- pest or weed control at 8 g/ha (Geranium pusillum; 432 h, POST, GERPU, I-2 solo 8 gai/ha, 18 DAT): 50%
- inhibition at 2 g/ha (Geranium pusillum; 480 h, GERPU POST, 20 DAT): 20%
- pest or weed control at 2 g/ha (Geranium pusillum; 480 h, POST, 2 gai/ha, 20 DAT): 20%
- pest or weed control at 8 g/ha (Geranium pusillum; 480 h, POST, 8 gai/ha, 20 DAT): 25%
- inhibition at 2 g/ha (Geranium pusillum; POST, GERPU): 30%
